Measured values reported in patent publication US5262537A, “Derivatives of 4,5,6,7-tetrahydroimidazo-[4,5-c]pyridinyl-6-carboxylic acid” (priority 1993, dated 1993).
Structures can show the parent of a compound that is named as a salt. Where two headings read alike, the source gives them in different places.

Key:
[1] = biological target: T1, 5-HT3 (Rattus norvegicus, UniProt P35563); assay: biochemical; format: binding, Male Sprague-Dawley rats
T1 sequence (P35563 24-483): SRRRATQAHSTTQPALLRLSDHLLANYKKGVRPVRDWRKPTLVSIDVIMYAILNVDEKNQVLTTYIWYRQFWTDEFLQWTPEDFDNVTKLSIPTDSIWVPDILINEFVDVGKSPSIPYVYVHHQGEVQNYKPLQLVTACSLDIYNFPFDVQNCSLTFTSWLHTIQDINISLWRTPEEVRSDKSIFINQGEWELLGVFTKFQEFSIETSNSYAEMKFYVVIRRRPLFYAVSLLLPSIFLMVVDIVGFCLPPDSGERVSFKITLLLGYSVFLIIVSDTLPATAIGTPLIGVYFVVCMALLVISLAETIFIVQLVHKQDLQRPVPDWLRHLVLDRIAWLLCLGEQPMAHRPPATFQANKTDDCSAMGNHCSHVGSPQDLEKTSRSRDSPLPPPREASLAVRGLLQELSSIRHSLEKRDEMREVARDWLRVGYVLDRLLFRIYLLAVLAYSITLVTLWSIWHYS
Protocol: A number of compounds in accordance with the present invention were tested for their 5-HT3 and D2 binding affinities in accord with the following procedures.
Male Sprague-Dawley rats (175-220 g) were sacrificed by decapitation and their brains removed rapidly. The entorhinal cortex was used for the 5-HT3 (5-hydroxytryptamine) binding assay and the remainder of the brain, minus the brain stem and cerebellum, was used for the D2 (dopamine) binding assay. The entorhinal cortex was harvested and prepared on the day of the assay.
The entorhinal cortex was homogenized in 20 volumes of cold 50 mM HEPES buffer, pH 7.4, while the remaining brain tissue was homogenized in 20 volumes of cold 50 mM Tris, pH 7.4. The homogenates were centrifuged at 4800×g for 15 minutes at 5° C. and the supernatants decanted. Pellets were resuspended in the original volume of HEPES or Tris. Homogenates were centrifuged and the supernatants decanted. Pellets were resuspended in the same volume of HEPES or Tris and incubated at 37° C. for 45 minutes to remove endogenous neurotransmitters. Homogenates were centrifuged and the supernatants were decanted. Pellets for D2 assays were stored at -50° C. until the day of the assay. The pellets for the 5-HT3 assay (entorhinal cortex) were resuspended in the appropriate amount of HEPES buffer and used promptly. Modifications of published assays for [^3 H]GR65630 (Kilpatrick et al., Nature: 330, 746-748 (1987)) and [^3 H]raclopride (Dewar et al., J. Pharmacol. Exp. Ther.: 250, 696-706 (1989) and Lidow et al., Proc. Natl. Acad. Sci. USA: 86, 6412-6416 (1989)) were used for the 5-HT3 and D2 binding assays, respectively.
Briefly, 0.25 ml of homogenate was incubated with either 0.2 nM of [^3 H]GR65630 or 1.0 nM of [^3 H]raclopride in a final volume of 0.5 ml. D2 binding also requires sodium chloride and potassium chloride (120 mM and 5 mM, final concentration, respectively). In the 5-HT3 assay, non-specific binding was defined in the presence of 100 uM quipazine. In the D2 assay, non-specific binding was defined in the presence of 100 uM of (+/-) sulpiride. Both assays were incubated at room temperature; [^3 H]GR65630 for 40 minutes and [^3 H]raclopride for 60 minutes. Test compounds (0.1 ml) were added to incubates where appropriate. Bound ligand was separated from free ligand by filtration and quantified using liquid scintillation spectrophotometry. IC50 values were calculate for all test compounds.

[2] = system: Ferret; assay: Cisplatin Ferret Assay--Antiemetic Screening; format: in vivo, Male ferrets; conditions: for inhibition in vivo at 0.1 mg/kg / ED50: Mustela putorius, iv, 4 h; for inhibition in vivo at 0.1 mg/kg: read-out: Ferret Cisplatin Test % Prot, 0.1 mg/Kg; for ED50: read-out: Ferret Cisplatin Test ED50
Protocol: Male ferrets (castrated, descented, 1-2 kg) were purchased from Triple F Farms, Syre, Pa. Ferrets were housed four in a cage with a 12 hour light cycle and were fed ad libitum with Ralston Purina Cat Chow. Each ferret was used unfasted for the assay after a minimum of a 24 hour acclimation time in animal facility.
Ferret Preparation. Each ferret was anesthetized with 5% isoflurane-O2in a 20 gallon aquarium for 2 to 5 minutes. After removal of the anesthetic gas, the animals were removed and weighed. Injections were made into the dorsal front paw vein using a tourniquet and a 1 ml tuberculin syringe with a 25 g needle while the animal was maintained under anesthesia using a small nose cone delivering 5% isoflurane-O2. Cisplatin was injected using a 3 ml or 5 ml syringe in the opposite paw from the study compound or saline. Recovery time from anaesthesia was 5 to 8 minutes.
Drug Preparation. Cisplatin bulk powder was weighed and dissolved in normal saline at 75° C. to provide a 5 mg/ml solution (90 mg was placed in a scintillation vial and qs with 18 ml saline). The solution was stirred and maintained at 40° C. until ready for use. The study drug was weighed and dissolved in normal saline at room temperature to provide a 1 mg/ml solution (10 mg was placed in a scintillation vial and qs with 10 ml saline). Suspensions were heated to 40° C. to bring the study compound into solution. Compounds not soluble under these conditions were not assayed.
Assay. Cisplatin was injected i.v. at 10 mg/kg into twelve anesthetized ferrets daily at time zero. Normal saline (0.5 ml) or the study compound (0.1 or 1.0 mg/kg) was injected 30 minutes later in groups of three anesthetized ferrets. Order of treatment and treatment dose was selected at random, with the remaining treatment dose assayed in the next experiment.
Experimental Observations and Data Collection. Ferrets were viewed individually. The time and number of emetic episodes were recorded for four hours. Zero time was equivalent to the time of cisplatin injection. […] Retches were recorded but not counted. The total number of episodes for each of the four groups of three ferrets (+/-S.E.) was averaged and the effect of treatment (% protection) was calculated as the percent reduction of emetic episodes compared to controls. [formula]
Percent protection values were determined from experimental controls. Experimental controls were those obtained from the day of the experiment. Onset times of the first episode were averaged and recorded for each group. Prodromal signs (lip licking, slit eyes, head shaking, salivation, scratching, clawing, walking backward, sedation, urination, and defecation) were also averaged and recorded.

[3] = 0.2 nM [3H]GR65630, rat entorhinal cortex, 40 minutes, room temperature, read-out: 5-HT3 IC50
[4] = 0.1 mg/kg i.v., 30 minutes after cisplatin 10 mg/kg i.v., percent reduction of emetic episodes vs controls, four hours
[5] = i.v., 30 minutes after cisplatin 10 mg/kg i.v., emetic episodes over four hours

IC50 [1, 3] [nM] | SMILES | inhibition in vivo at 0.1 mg/kg [2, 4] [%] | ED50 [2, 5] [mg/kg] | Ferret Cisplatin Test % Prot, 0.1 mg/Kg [2, 4] [%] | IC50 [1] [nM] | inhibition in vivo at 0.1 mg/kg [2] [%] | ED50 [2] [mg/kg]
47.6 | COc1ccccc1NC(=O)[C@H]1Cc2[nH]cnc2CN1C [Compd 3] | 9 | 2.08 |  |  |  | 
4.26 | CC(=O)c1ccccc1NC(=O)[C@H]1Cc2[nH]cnc2CN1C [Compd 5] | 22 | 0.123 |  |  |  | 
4.86 | COc1ccccc1NC(=O)[C@@H]1Cc2[nH]cnc2CN1C [Compd 6] | 77 | 0.023 |  |  |  | 
4.14 | CCOc1ccccc1NC(=O)[C@H]1Cc2[nH]cnc2CN1C [Compd 10] | 29 | 0.31 |  |  |  | 
8.19 | CN1Cc2nc[nH]c2C[C@@H]1C(=O)Nc1ccccc1Oc1ccccc1 [Compd 11] | 15 | 0.47 |  |  |  | 
71.5 | CN1Cc2nc[nH]c2C[C@@H]1C(=O)Nc1nc2ccccc2s1 [Compd 13, (R)-6-(2-benzothiazolylaminocarbonyl)-5-methyl-4,5,6,7-tetrahydroimidazo[4,5-c]pyridine] | 76 | 0.074 |  |  |  | 
8.53 | COc1ccccc1NC(=O)[C@@H]1Cc2[nH]cnc2CN1 [Compd 14, (S)-6-(2-methoxyphenyl)aminocarbonyl-4,5,6,7-tetrahydroimidazo[4,5-c]pyridine] | 48 | 0.062 |  |  |  | 
29 | COC(=O)c1ccccc1NC(=O)[C@@H]1Cc2[nH]cnc2CN1C [Compd 16] | 42 | 0.01 |  |  |  | 
15.4 | CCOc1ccccc1NC(=O)[C@@H]1Cc2[nH]cnc2CN1C [Compd 17] | 58 | 0.2 |  |  |  | 
1.98 | CN1Cc2nc[nH]c2C[C@@H]1C(=O)Nc1cccc2nsnc12 [Compd 21] | 24 | 0.39 |  |  |  | 
47.2 | CN1[C@H](C(=O)Nc2ccccc2O)Cc2[nH]cnc2C1(C)C [Compd 24] | 48 | 0.025 |  |  |  | 
6.92 | CN1Cc2nc[nH]c2C[C@H]1C(=O)Nc1ccccc1Oc1ccccc1.Cl.Cl [Compd 27, (S)-5-methyl-6-(2-phenoxyphenylaminocarbonyl)-4,5,6,7-tetrahydroimidazo[4,5-c]pyridine dihydrochloride] | 72 | 0.031 |  |  |  | 
160 | CN1Cc2nc[nH]c2C[C@H]1C(=O)Nc1ccc(F)c(F)c1F [Compd 35] | 20 | 0.19 |  |  |  | 
103 | CN1Cc2nc[nH]c2C[C@H]1C(=O)Nc1cccc2c1NCCC2 [Compd 36] | 70 | 0.081 |  |  |  | 

The next lines start with the compound.

SMILES | IC50 [1, 3] [nM] | inhibition in vivo at 0.1 mg/kg [2, 4] [%] | ED50 [2, 5] [mg/kg] | Ferret Cisplatin Test % Prot, 0.1 mg/Kg [2, 4] [%] | IC50 [1] [nM] | inhibition in vivo at 0.1 mg/kg [2] [%] | ED50 [2] [mg/kg]
CN1Cc2nc[nH]c2C[C@@H]1C(=O)Nc1ccccc1O [Compd 1] | 10.9 | 73 | 0.063 |  |  |  | 
COc1ccc(Cl)cc1NC(=O)[C@H]1Cc2[nH]cnc2CN1C [Compd 2] | 10 | 31 | 0.4 |  |  |  | 
COC(=O)c1ccccc1NC(=O)[C@H]1Cc2[nH]cnc2CN1C [Compd 4] | 12.1 | 33 | 0.1 |  |  |  | 
COc1ccc(Cl)cc1NC(=O)[C@@H]1Cc2[nH]cnc2CN1C [Compd 7] | 6.26 | 57 | 0.14 |  |  |  | 
COc1ccccc1NC(=O)[C@H]1Cc2[nH]cnc2CN1 [Compd 8] | 10.4 | 62 |  |  |  |  | 
CN1Cc2nc[nH]c2C[C@@H]1C(=O)Nc1ccccc1 [Compd 9] | 57.2 | 26 | 0.33 |  |  |  | 
CN1Cc2[nH]cnc2C[C@@H]1C(=O)Nc1nccs1 [Compd 12] | 273 |  |  | 40 |  |  | 
CN1Cc2nc[nH]c2C[C@H]1C(=O)Nc1ccccc1O [Compd 15, (S)-6-(2-hydroxyphenylaminocarbonyl)-5-methyl-4,5,6,7-tetrahydroimidazo[4,5-c]pyridine] | 62.4 | 99 | 0.007 |  |  |  | 
CCN1Cc2nc[nH]c2C[C@H]1C(=O)Nc1ccccc1O [Compd 18] | 17.6 | 46 | 0.16 |  |  |  | 
CN1Cc2nc[nH]c2C[C@@H]1C(=O)c1ccccc1 [Compd 19, (R)-6-benzoyl-5-methyl-4,5,6,7-tetrahydroimidazo[4,5-c]pyridine] |  |  |  |  | 58.5 | 8 | 
COc1ccccc1NC(=O)[C@@H]1Cc2nc[nH]c2C(C)(C)N1 [Compd 20] | 21.7 |  | 0.008 | 72 |  |  | 
CN1Cc2nc[nH]c2C[C@H]1C(=O)Nc1nc2ccccc2s1 [Compd 22] | 37.2 | 14 |  |  |  |  | 
CN1Cc2nc[nH]c2C[C@H]1C(=O)Nc1cccc2nsnc12 [Compd 23] | 15.9 | 100 | 0.016 |  |  |  | 
COc1ccccc1NC(=O)[C@@H]1Cc2[nH]cnc2C(C)(C)N1C [Compd 25] | 14.1 | 93 | 0.026 |  |  |  | 
CN1Cc2nc[nH]c2C[C@H]1C(=O)Nc1ccccc1NC(=O)c1ccccc1 [Compd 26] | 289 | 0 |  |  |  |  | 
CN1Cc2nc[nH]c2C[C@H]1C(=O)c1cccs1 [Compd 28] | 648 |  |  |  |  | 0 | 
CN1Cc2nc[nH]c2C[C@H]1C(=O)Nc1ccccc1F [Compd 29] | 335 | 88 | 0.024 |  |  |  | 
COc1ccc(OC)c(NC(=O)[C@@H]2Cc3nc[nH]c3CN2C)c1 [Compd 30, (S)-6-(2,5-dimethoxyphenylaminocarbonyl)-5-methyl-4,5,6,7-tetrahydoimidazo[4,5-c]pyridine dihydrochloride] | 69.7 | 5 |  |  |  |  | 
CN1Cc2nc[nH]c2C[C@H]1C(=O)Nc1cccc(F)c1F [Compd 31] | 644 | 91 | 0.068 |  |  |  | 
CN1Cc2nc[nH]c2C[C@H]1C(=O)c1cc2ccccc2s1 [Compd 32, 6-(2-benzo[b]thiophenylcarbonyl)-5-methyl-4,5,6,7-tetrahydroimidazo[4,5-c]pyridine] | 234 |  |  |  |  | 41 | 0.11
CN1Cc2nc[nH]c2C[C@H]1C(=O)c1cc2ccccc2o1 [Compd 33, 6-(2-benzo[b]furanylcarbonyl)-5-methyl-4,5,6,7-tetrahydroimidazo[4,5-c]pyridine] | 2020 |  |  |  |  | 31 | 0.43
CN1Cc2nc[nH]c2C[C@H]1C(=O)Nc1c(F)cccc1F [Compd 34] | 612 | 59 | 0.15 |  |  |  | 
COc1ccccc1NC(=O)[C@@H]1Cc2[nH]cnc2CN1C(C)=O [Compd 47, (S)-5-acetyl-6-(2-methoxyphenylaminocarbonyl)-4,5,6,7-tetrahydroimidazo[4,5-c]pyridine] |  | 81 | 0.044 |  |  |  | 
CN1C2CCCC1CC(NC(=O)c1nn(C)c3ccccc13)C2 (centres unmarked) [Granisetron, reference compound] |  | 71 | 0.03 |  |  |  | 
Cc1nccn1CC1CCc2c(c3ccccc3n2C)C1=O (centres unmarked) [Ondansetron, reference compound] |  | 77 | 0.041 |  |  |  | 
